The record followed here is patent US20250214991A1 (Oncopia Therapeutics, Inc. d/b/a/ SK Life Science Labs, priority 2022, published 2025).

The structures appear in SMILES notation. Some results are limits rather than exact numbers.

Assay [1] deals with CRBN/DDB1 (Homo sapiens (Human), UniProt Q96SW2). The experiment in a line: IC50 measurements for binding to CRBN/DDB1 (HTRF). To be noted: His tagged CRBN+DDB, Cy5-labeled Thalidomide probe, one hour. In a few lines:
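Serially diluted compounds compete with a Cy5-labeled thalidomide tracer (60 nM) for His-tagged CRBN-DDB1 (2 nM), detected via anti-6His Tb cryptate (0.4 nM); buffer HEPES pH 7.5 with TCEP, Brij-35, NaCl, BSA. One-hour room-temperature incubation, HTRF signal read, IC50 by four-parameter curve.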
For orientation: In TR-FRET formats the signal depends on donor and acceptor labels being close together.

For assay [2], the target named is T1, IKZF2 (Homo sapiens (Human), UniProt Q96SW2+Q9UKS7). The experiment in a line: In vitro IKZF2 Western Blot Assay in Jurkat cells. Format: cell-based. As to conditions: 24 hrs; for inhibition at 0.001 µM: read-out: IKZF2 degradation (%) @ μM 0.001; for inhibition at 0.01 µM: read-out: IKZF2 degradation (%) @ μM 0.01; for inhibition at 0.1 µM: read-out: IKZF2 degradation (%) @ μM 0.1; for inhibition at 1 µM: read-out: IKZF2 degradation (%) @ μM 1; for inhibition at 10 µM: read-out: IKZF2 degradation (%) @ μM 10. The method, then:
In vitro IKZF2 Western Blot Assay Jurkat cells (ATCC, Cat #HB-8065) were cultured in RPMI1640+10% FBS+1% P/S. Cells were treated at desired compound concentrations (0.001, 0.01, 0.1, 1, and 10 μM) and DMSO as vehicle control for 24 hrs. After 24 hr of treatment cells were collected by centrifugation and lysed in RIPA lysis buffer on ice for 10 min. After assessing protein concentration by BCA assay (Pierce), equal amounts of protein for each sample were loaded into 4-12% Bis-Tris gels (Invitrogen), transferred to PVDF membranes and immunoblotted with antibodies against IKZF2 and Actin (Cell Signaling). Membranes were developed on an Odyssey detection system (LI-COR Biosciences) after incubation with IRDye800-labeled goat anti-rabbit IgG and IRDye680-labeled goat anti-mouse IgG (LI-COR) secondary antibodies. Band intensities were quantified using ImageStudio software. Data was further analyzed using XLfit. Percentage of IKZF2 protein degradation: A (>50%); B (30-50%); C(<30%) (Table 2).
(Immunoblotting shows a protein as a band on a membrane.)

For assay [3], the target named is T1, IKZF2. The experiment in a line: In vitro IKZF2 HiBit Assay (HEK293T Flp-in-HiBiT cells). The assay is classed as cell-based. As to conditions: HEK293T Flp-in-HiBiT cells, 6 hrs incubation; for DC50: read-out: IKZF2 HiBit DC50; for Dmax: HEK-293T, read-out: IKZF2 HiBit Dmax (%). The essentials: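 Remaining tagged Helios was read as lytic HiBiT/LgBiT luminescence normalized to DMSO, yielding binned DC50 and Dmax values. Treatment ran 6 h, with compounds at 11 three-fold doses diluted from 1 mM and 0.1% final DMSO. The cells were HEK293T Flp-in with CRISPR knock-in of HiBiT at the IKZF2 N-terminus.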
For orientation: HiBiT is a short tag that completes a luciferase, so light tracks the accessible tagged protein.

For assay [4], the target named is T1, IKZF2. The experiment in a line: In vitro IKZF2 FACS Assay in Jurkat cells. As to conditions: 24 hrs; for DC50: half maximal degradation concentration; for Dmax: maximal degradation percentage. The assay is classed as cell-based. The method, then:
In vitro IKZF2 FACS Assay
DC50, A: <1 nM; B: 1-10 nM; C: 10-100 nM; D: 100-1000 nM; E: >1000 nM. Dmax, A: >80%; B: 60-80%; C: 40-60%; D: 20-40%; E: <20%.

Assay [5] addresses IKZF1 (Homo sapiens (Human), UniProt Q13422+Q96SW2). The experiment in a line: In vitro IKZF1 HiBit Assay (HEK293T Flp-in-HiBiT-IKZF1 stable cell line). The assay is classed as cell-based. To be noted: HEK293T Flp-in-HiBiT-IKZF1 stable cell line, 6 hrs incubation; for DC50: read-out: IKZF1 HiBit DC50; for Dmax: HEK-293T, read-out: IKZF1 HiBit Dmax (%). In a few lines: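 Degradation was measured as loss of luminescence from the HiBiT-IKZF1 tag after 6 h compound treatment, with 0.1% final DMSO, in stable HEK293T Flp-in cells. Values were normalized to DMSO, giving the 50% degradation concentration and the maximal degradation range.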

IKZF1, sequence (Q13422 whole entry): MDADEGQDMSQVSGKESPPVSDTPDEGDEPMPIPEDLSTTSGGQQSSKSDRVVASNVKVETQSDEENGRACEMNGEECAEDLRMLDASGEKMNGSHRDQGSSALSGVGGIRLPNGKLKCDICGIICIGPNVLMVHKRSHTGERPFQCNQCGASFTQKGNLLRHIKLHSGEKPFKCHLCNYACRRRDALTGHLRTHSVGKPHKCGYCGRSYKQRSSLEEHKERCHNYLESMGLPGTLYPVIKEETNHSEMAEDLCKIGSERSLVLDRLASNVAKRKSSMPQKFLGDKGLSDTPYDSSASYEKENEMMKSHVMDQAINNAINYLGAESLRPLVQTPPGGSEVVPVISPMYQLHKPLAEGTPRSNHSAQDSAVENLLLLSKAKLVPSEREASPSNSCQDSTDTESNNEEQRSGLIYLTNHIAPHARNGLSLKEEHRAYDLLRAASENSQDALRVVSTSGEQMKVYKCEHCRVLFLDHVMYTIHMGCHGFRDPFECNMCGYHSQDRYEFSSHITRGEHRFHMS
IKZF1, sequence (Q96SW2 whole entry): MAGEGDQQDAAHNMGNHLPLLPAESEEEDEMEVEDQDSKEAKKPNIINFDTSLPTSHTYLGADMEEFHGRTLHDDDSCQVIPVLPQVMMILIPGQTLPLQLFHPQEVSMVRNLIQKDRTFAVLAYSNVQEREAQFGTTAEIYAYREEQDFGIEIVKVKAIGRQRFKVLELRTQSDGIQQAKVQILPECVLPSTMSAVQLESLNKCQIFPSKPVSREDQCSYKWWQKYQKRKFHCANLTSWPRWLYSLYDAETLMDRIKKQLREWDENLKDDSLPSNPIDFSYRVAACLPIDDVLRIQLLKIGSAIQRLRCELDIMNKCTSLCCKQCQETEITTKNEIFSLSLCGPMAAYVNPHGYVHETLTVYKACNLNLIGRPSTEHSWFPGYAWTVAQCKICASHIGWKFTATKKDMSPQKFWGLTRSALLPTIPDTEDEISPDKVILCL
IKZF1, sequence (Q16531 2-1140 partner): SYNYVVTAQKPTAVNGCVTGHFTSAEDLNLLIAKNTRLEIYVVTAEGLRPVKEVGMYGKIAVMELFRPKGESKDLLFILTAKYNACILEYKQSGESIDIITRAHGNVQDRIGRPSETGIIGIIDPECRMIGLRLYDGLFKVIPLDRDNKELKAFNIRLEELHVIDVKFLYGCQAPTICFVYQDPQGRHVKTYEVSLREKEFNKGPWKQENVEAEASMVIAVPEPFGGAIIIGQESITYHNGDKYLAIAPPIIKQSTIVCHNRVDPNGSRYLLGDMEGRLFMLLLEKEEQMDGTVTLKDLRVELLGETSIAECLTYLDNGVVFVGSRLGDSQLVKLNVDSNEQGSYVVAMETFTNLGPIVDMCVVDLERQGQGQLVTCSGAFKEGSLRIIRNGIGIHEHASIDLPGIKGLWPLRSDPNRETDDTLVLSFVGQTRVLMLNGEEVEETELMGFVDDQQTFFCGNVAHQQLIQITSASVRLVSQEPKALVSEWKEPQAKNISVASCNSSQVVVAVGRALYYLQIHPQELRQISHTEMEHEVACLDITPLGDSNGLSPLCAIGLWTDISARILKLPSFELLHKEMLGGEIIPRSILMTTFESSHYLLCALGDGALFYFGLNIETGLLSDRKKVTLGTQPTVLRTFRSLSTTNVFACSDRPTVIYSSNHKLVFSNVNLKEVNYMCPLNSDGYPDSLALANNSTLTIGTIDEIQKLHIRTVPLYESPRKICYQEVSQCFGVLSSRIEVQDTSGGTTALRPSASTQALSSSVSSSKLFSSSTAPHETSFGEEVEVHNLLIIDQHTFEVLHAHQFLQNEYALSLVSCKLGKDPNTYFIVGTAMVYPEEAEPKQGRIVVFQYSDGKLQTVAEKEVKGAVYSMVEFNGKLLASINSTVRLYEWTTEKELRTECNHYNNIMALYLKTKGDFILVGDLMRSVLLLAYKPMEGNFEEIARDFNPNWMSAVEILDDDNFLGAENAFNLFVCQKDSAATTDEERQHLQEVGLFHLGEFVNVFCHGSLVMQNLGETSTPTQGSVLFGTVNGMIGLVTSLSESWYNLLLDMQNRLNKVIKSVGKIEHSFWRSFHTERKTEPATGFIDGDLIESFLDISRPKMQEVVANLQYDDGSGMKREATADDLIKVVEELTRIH
T1 sequence (Q9UKS7 whole entry): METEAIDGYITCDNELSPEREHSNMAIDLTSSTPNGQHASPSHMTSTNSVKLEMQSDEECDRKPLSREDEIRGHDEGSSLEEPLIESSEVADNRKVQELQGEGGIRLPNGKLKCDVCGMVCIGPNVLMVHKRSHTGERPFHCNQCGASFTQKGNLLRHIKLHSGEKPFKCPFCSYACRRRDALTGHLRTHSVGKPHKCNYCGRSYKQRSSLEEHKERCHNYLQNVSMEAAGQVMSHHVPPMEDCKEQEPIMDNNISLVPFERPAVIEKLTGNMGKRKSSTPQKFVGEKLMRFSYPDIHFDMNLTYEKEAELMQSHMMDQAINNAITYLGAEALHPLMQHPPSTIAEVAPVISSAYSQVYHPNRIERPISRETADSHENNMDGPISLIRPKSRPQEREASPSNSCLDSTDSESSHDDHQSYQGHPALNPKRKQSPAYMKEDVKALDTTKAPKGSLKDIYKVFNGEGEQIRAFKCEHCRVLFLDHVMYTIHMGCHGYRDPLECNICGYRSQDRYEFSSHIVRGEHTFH
T1 sequence (Q96SW2 whole entry): as the sequence (Q96SW2 whole entry) above
T1 sequence (Q16531 2-1140 partner): as the sequence (Q16531 2-1140 partner) above
CRBN/DDB1, sequence (Q96SW2 whole entry, species assumed): as the sequence (Q96SW2 whole entry) above
CRBN/DDB1, sequence (Q16531 whole entry partner, species assumed): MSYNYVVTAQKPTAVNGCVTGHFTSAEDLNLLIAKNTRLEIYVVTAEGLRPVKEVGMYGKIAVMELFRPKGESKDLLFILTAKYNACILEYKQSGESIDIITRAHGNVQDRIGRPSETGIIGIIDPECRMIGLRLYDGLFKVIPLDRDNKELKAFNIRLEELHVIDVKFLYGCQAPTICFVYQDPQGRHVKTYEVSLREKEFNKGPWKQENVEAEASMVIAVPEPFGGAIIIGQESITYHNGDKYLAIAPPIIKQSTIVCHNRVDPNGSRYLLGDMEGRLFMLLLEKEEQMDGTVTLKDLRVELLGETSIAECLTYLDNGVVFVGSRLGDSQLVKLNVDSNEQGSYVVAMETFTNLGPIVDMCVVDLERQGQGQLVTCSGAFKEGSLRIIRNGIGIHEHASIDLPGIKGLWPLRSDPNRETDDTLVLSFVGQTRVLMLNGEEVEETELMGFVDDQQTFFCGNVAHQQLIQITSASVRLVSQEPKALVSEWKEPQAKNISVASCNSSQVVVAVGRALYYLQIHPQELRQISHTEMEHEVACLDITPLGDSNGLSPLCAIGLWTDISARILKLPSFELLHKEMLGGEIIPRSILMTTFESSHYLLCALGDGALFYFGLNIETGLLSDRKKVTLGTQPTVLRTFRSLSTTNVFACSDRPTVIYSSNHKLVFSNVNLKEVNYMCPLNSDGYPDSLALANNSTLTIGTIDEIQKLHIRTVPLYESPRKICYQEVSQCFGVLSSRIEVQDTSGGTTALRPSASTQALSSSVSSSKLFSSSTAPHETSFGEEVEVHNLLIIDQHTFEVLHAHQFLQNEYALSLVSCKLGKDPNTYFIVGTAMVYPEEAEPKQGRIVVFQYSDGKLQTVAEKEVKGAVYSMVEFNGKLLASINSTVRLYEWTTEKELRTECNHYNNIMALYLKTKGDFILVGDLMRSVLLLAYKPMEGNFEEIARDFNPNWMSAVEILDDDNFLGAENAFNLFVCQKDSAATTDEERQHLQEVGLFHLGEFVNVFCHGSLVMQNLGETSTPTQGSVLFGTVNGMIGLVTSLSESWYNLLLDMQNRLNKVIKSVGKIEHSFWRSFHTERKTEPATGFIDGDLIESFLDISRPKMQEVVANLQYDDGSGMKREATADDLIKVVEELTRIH

`O=C1CCC(N2Cc3cc(-c4cc(CNCCc5ccccc5Cl)cc5cncn45)ccc3C2=O)C(=O)N1` (centres unmarked) [Example 21, 3-(5-(7-(((2-chlorophenethyl)amino)methyl)imidazo[1,5-a]pyridin-5-yl)-1-oxoisoindolin-2-yl) piperidine-2,6-dione] yielded an IC50 in assay [1] of 0.1 to 0.5 µM. In assay [2], the inhibition at 0.001 µM was in the range of 30 to 50%, the inhibition at 0.01 µM is more than 50%, the inhibition at 0.1 µM is more than 50% and the inhibition at 1 µM was more than 50%. In addition, the inhibition at 10 µM in assay [2] was more than 50%.

For the compound `O=C1CCC(N2Cc3cc(-c4cc(CN5CCCC5c5ccccc5)cc5cncn45)ccc3C2=O)C(=O)N1` (centres unmarked) [Example 26, 3-(1-oxo-5-(7-((2-phenylpyrrolidin-1-yl)methyl)imidazo[1,5-a]pyridin-5-yl)isoindolin-2-yl) piperidine-2,6-dione], the IC50 in assay [1] is 0.1 to 0.5 µM. In assay [2], the inhibition at 0.001 µM is less than 30%, the inhibition at 0.01 µM is less than 30%, the inhibition at 0.1 µM was 30 to 50% and the inhibition at 1 µM was 30 to 50%. Besides, the inhibition at 10 µM in assay [2] lay within 30 to 50%.

In assay [1], `O=C1CCC(N2Cc3cc(-c4cc(CN5CCCCC5)cn5ccnc45)ccc3C2=O)C(=O)N1` (centres unmarked) [Example 33, 3-(1-oxo-5-(6-(piperidin-1-ylmethyl)imidazo[1,2-a]pyridin-8-yl)isoindolin-2-yl) piperidine-2,6-dione] came in with an IC50 of 0.1 to 0.5 µM. In addition, in assay [2], the inhibition at 0.001 µM is less than 30%, the inhibition at 0.01 µM was more than 50%, the inhibition at 0.1 µM is more than 50% and the inhibition at 1 µM is more than 50%. Also, the inhibition at 10 µM in assay [2] is more than 50%.

In assay [1], `O=C1CCC(N2Cc3cc(-c4cc(CN5CCC5)cn5ccnc45)ccc3C2=O)C(=O)N1` (centres unmarked) [Example 34, 3-(5-(6-(azetidin-1-ylmethyl)imidazo[1,2-a]pyridin-8-yl)-1-oxoisoindolin-2-yl) piperidine-2,6-dione] registered an IC50 of less than 0.1 µM. In assay [2], the inhibition at 0.001 µM lay in the range of 30 to 50%, the inhibition at 0.01 µM was 30 to 50%, the inhibition at 0.1 µM is more than 50% and the inhibition at 1 µM was more than 50%. For the same compound, in assay [2], the inhibition at 10 µM was more than 50%.

The compound `O=C1CCC(N2Cc3cc(-c4cc(CN5CCC(F)(F)CC5)cn5ccnc45)ccc3C2=O)C(=O)N1` (centres unmarked) [Example 35, 3-(5-(6-((4,4-difluoropiperidin-1-yl)methyl)imidazo[1,2-a]pyridin-8-yl)-1-oxoisoindolin-2-yl) piperidine-2,6-dione] gave an IC50 in assay [1] of 0.1 to 0.5 µM. In assay [2], the inhibition at 0.001 µM is less than 30%, the inhibition at 0.01 µM was less than 30%, the inhibition at 0.1 µM is less than 30% and the inhibition at 1 µM was less than 30%. The inhibition at 10 µM in assay [2] was less than 30%.

On to `Cn1ccc2c(CN3CCCC3)c(Cl)c(-c3ccc4c(c3)CN(C3CCC(=O)NC3=O)C4=O)nc21` (centres unmarked) [Example 229, 3-(5-(5-chloro-1-methyl-4-(pyrrolidin-1-ylmethyl)-1H-pyrrolo[2,3-b]pyridin-6-yl)-1-oxoisoindolin-2-yl) piperidine-2,6-dione], for which the DC50 in assay [3] was 0.001 to 0.01 µM; in assay [4], 0.001 to 0.01 µM; in assay [5], more than 10 µM. For the same compound, the Dmax in assay [3] was 60 to 80%; in assay [4], 60 to 80%; in assay [5], less than 20%. For the same compound, the IC50 in assay [1] was in the range of 0.1 to 0.5 µM.

In the case of `O=C1CCC(N2Cc3c(ccc(-c4cc(CN5CCCC5)c5ccn(C6CS(=O)(=O)C6)c5n4)c3Cl)C2=O)C(=O)N1` (centres unmarked) [Example 230, 3-(4-chloro-5-(1-(1,1-dioxidothietan-3-yl)-4-(pyrrolidin-1-ylmethyl)-1H-pyrrolo[2,3-b]pyridin-6-yl)-1-oxoisoindolin-2-yl) piperidine-2,6-dione], the DC50 in assay [3] was 0.001 to 0.01 µM; in assay [4], 0.001 to 0.01 µM; in assay [5], more than 10 µM. The Dmax in assay [3] was 60 to 80%; in assay [4] it was more than 80%; in assay [5] it was less than 20%. Also, in assay [1], the IC50 lay within 0.1 to 0.5 µM.

For the compound `CC(C)Oc1ccnc2c(CN3CCCC3)cc(-c3ccc4c(c3)CN(C3CCC(=O)NC3=O)C4=O)nc12` (centres unmarked) [Example 232, 3-(5-(8-isopropoxy-4-(pyrrolidin-1-ylmethyl)-1,5-naphthyridin-2-yl)-1-oxoisoindolin-2-yl) piperidine-2,6-dione], the DC50 is 0.001 to 0.01 µM in assay [3], 0.01 to 0.1 µM in assay [4] and more than 10 µM in assay [5]. Also, the Dmax is 60 to 80% in assay [3], 60 to 80% in assay [4] and less than 20% in assay [5]. The compound also came in with an IC50 in assay [1] of 0.5 to 1 µM.

Turning to `CC(C)Nc1ccnc2c(CN3CCCC3)cc(-c3ccc4c(c3)CN(C3CCC(=O)NC3=O)C4=O)nc12` (centres unmarked) [Example 236, 3-(5-(8-(isopropylamino)-4-(pyrrolidin-1-ylmethyl)-1,5-naphthyridin-2-yl)-1-oxoisoindolin-2-yl) piperidine-2,6-dione], the DC50 in assay [3] was 0.01 to 0.1 µM; in assay [4] it was more than 1 µM; in assay [5] it was more than 10 µM. Further, the Dmax in assay [3] was 20 to 40%; in assay [4] it was less than 20%; in assay [5], less than 20%. In assay [1], this compound yielded an IC50 of 1 to 5 µM.

For the compound `CN(C)c1ccnc2c(CN3CCCC3)cc(-c3ccc4c(c3)CN(C3CCC(=O)NC3=O)C4=O)nc12` (centres unmarked) [Example 237, 3-(5-(8-(dimethylamino)-4-(pyrrolidin-1-ylmethyl)-1,5-naphthyridin-2-yl)-1-oxoisoindolin-2-yl) piperidine-2,6-dione], the figures for the DC50 in assay [3], in assay [4] and in assay [5] were 0.01 to 0.1 µM, 0.01 to 0.1 µM and 0.001 to 0.01 µM, respectively. The values for the Dmax in assay [3], in assay [4] and in assay [5] were 60 to 80%, 40 to 60% and 20 to 40%, respectively. The same compound registered an IC50 in assay [1] of 1 to 5 µM.

Regarding `O=C1CCC(N2Cc3cc(-c4cc(CN5CCCC5)c5nccc(OC6CCC6)c5n4)ccc3C2=O)C(=O)N1` (centres unmarked) [Example 239, 3-(5-(8-cyclobutoxy-4-(pyrrolidin-1-ylmethyl)-1,5-naphthyridin-2-yl)-1-oxoisoindolin-2-yl) piperidine-2,6-dione], the DC50 in assay [3] is 0.001 to 0.01 µM; in assay [4] it was 0.01 to 0.1 µM; in assay [5] it was more than 10 µM. Moreover, the results for the Dmax in assay [3], in assay [4] and in assay [5] were 60 to 80%, 60 to 80% and less than 20%, respectively. In addition, the IC50 in assay [1] lay in the range of 1 to 5 µM.

With `O=C1CCC(N2Cc3cc(-c4cc(CN5CCCC5)c5[nH]ncc5n4)ccc3C2=O)C(=O)N1` (centres unmarked) [Example 307, 3-(1-oxo-5-(7-(pyrrolidin-1-ylmethyl)-1H-pyrazolo[4,3-b]pyridin-5-yl)isoindolin-2-yl) piperidine-2,6-dione], the DC50 in assay [3] was in the range of 0.001 to 0.01 µM; in assay [4], 0.001 to 0.01 µM; in assay [5], 1 to 10 µM. The results for the Dmax in assay [3], in assay [4] and in assay [5] were more than 80%, more than 80% and 20 to 40%, respectively. Besides, in assay [1], the IC50 lay in the range of 0.1 to 0.5 µM.

As to `Cn1cc2nc(-c3ccc4c(c3)CN(C3CCC(=O)NC3=O)C4=O)cc(CN3CCCC3)c2n1` (centres unmarked) [Example 314, 3-(5-(2-methyl-7-(pyrrolidin-1-ylmethyl)-2H-pyrazolo[4,3-b]pyridin-5-yl)-1-oxoisoindolin-2-yl) piperidine-2,6-dione], the DC50 in assay [3] is 0.001 to 0.01 µM; in assay [4], 0.001 to 0.01 µM; in assay [5], 0.01 to 0.1 µM. In addition, the Dmax in assay [3] is more than 80%; in assay [4], more than 80%; in assay [5] it was 20 to 40%. Moreover, in assay [1], the IC50 fell in the range of 0.1 to 0.5 µM.

As a reminder, the IC50 is the concentration at which inhibition is half-maximal. Low readings indicate greater potency, high ones weaker potency.
